In one assay the target is T1, flt-3 (Homo sapiens, UniProt P36888).
T1 construct: baculovirus expressed human Flt-3 kinase domain R571-S993
T1 sequence (P36888 571-993): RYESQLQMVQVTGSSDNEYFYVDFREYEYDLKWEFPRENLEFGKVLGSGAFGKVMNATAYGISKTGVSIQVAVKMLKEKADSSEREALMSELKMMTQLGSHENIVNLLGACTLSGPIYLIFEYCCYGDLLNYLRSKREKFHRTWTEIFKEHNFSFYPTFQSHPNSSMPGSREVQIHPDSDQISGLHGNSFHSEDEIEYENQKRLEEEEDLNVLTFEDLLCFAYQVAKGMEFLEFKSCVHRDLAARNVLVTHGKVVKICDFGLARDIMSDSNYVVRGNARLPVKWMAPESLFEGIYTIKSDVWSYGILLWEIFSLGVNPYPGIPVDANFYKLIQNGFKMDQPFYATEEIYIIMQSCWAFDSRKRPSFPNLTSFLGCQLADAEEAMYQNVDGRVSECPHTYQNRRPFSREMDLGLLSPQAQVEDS
Description: flt-3 Luciferase-Coupled Chemiluminescent Kinase assay (LCCA). Format: biochemical. Summed up: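 Baculovirus-expressed human Flt-3 kinase domain (R571-S993, 5 nM) was reacted with 5 μM ATP and 3 μM poly-EY in Tris pH 7.5 buffer with MgCl2/MnCl2 for 3 h at ambient temperature. Remaining ATP was read by luciferase-luciferin chemiluminescence, with ATP consumption standardized to 25-45%, for IC50.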

The next assay concerns the target T2, EphB4 (Homo sapiens, UniProt P54760).
T2 sequence (P54760 16-987): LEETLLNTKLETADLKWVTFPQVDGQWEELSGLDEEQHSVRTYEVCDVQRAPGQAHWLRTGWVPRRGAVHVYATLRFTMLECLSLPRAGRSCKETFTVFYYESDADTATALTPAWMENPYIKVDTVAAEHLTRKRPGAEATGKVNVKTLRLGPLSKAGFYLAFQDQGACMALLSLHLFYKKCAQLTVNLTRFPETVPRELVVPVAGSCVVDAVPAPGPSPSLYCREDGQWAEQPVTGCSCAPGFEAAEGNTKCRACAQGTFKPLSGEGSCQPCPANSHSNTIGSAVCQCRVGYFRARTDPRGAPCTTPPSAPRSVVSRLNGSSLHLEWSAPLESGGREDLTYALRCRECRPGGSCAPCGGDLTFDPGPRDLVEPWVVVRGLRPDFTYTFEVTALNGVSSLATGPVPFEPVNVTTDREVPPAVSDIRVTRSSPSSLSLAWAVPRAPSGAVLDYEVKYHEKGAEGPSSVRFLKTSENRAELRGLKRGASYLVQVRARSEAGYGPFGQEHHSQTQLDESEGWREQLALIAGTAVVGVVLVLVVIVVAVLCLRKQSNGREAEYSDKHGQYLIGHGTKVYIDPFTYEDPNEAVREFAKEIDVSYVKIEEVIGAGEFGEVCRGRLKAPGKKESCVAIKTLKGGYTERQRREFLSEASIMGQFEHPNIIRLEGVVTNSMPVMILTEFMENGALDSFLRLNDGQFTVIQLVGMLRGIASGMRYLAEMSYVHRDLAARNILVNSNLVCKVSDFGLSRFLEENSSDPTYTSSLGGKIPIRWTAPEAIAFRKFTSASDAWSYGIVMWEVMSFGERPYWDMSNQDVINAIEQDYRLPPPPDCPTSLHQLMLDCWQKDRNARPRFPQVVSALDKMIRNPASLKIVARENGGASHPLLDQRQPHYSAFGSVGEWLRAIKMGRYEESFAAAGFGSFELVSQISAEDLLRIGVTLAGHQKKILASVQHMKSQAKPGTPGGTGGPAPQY
As to the kind of experiment: EphB4 kinase inhibition assay. Format: biochemical. On the procedure:
(§1) Kinase activity and compound inhibition are investigated using one or more of the three assay formats described below. The ATP concentrations for each assay are selected to be close to the Michaelis-Menten constant (KM) for each individual kinase. Dose-response experiments are performed at 10 different inhibitor concentrations in a 384-well plate format. The data are fitted to four-parameter equation (2) below; where Y is the observed signal, X is the inhibitor concentration, Min is the background signal in the absence of enzyme (0% enzyme activity), Max is the signal in the absence of inhibitor (100% enzyme activity), IC50 is the inhibitor concentration at 50% enzyme inhibition and H represents the empirical Hill's slope to measure the cooperativity. Typically H is close to unity. Y=Min+(Max−Min)/(1+(X/IC50)^H) Equation (2) ^33P Phosphoryl Transfer Assay: […]
(§2) Greiner 384-well white, clear bottom, high binding plates are coated with 2 μg/well of protein or peptide substrate in a 50 μL volume overnight at ambient temperature. The coating buffer typically contains 40 μg/mL substrate, 22.5 mM Na2CO3, 27.5 mM NaHCO3, 150 mM NaCl and 3 mM NaN3. The coating solution is aspirated and the plates are washed once with 50 μL of assay buffer and padded dry. Subsequently compounds and enzymes are mixed with γ^33P-ATP (3.3 μCi/nmol) in a total volume of 20 uL in suitable assay buffers. The mixture is incubated at ambient temperature for 1.5-2.5 hrs and terminated by aspiration using a Molecular Devices EMBLA 96-head plate washer. The plates are subsequently washed 6-12 times with PBST or TBS buffer. Scintillation fluid (50 μl/well) is then added, the plates are sealed and activity assessed by liquid scintillation spectrometry using a Perkin Elmer MicroBeta TriLux.
(§3) In the LCCA assays, kinase activity is measured as the percent ATP consumed following the kinase reaction using luciferase-luciferin-coupled chemiluminescence. Greiner 384-well white, clear bottom, medium-binding plates are used for LCCA. Briefly, the kinase reaction is initiated by mixing compounds, ATP and kinase in a 20 uL volume. The mixture is incubated at ambient temperature for 2-4 hrs. At the end of the kinase reaction, a 20 uL luciferase-luciferin mix is added and the chemiluminescent signal is read using a Wallac Victor^2 reader. The luciferase-luciferin mix consists of 50 mM HEPES, pH 7.8, 8.5 ug/mL oxalic acid (pH 7.8), 5 (or 50) mM DTT, 0.4% Triton X-100, 0.25 mg/mL coenzyme A, 63 uM AMP, 28 ug/mL luciferin and 40,000 units of light/mL luciferase. For the LCCA assays, total ATP consumption has been standardized to 25-45% and the IC50 values correlates well with those determined by radiometric assays.
(§4) AlphaScreen technology is a proximity assay which utilizes the increase in fluorescent signal occurring when donor and acceptor beads are close in proximity. Biotinylated poly(Glu,Tyr) 4:1 is used as the kinase substrate, in conjunction with streptavidin-coated donor beads and anti-phosphortyrosine antibody PY100-coated acceptor beads. Upon phosphorylation, the peptide substrate can bind to both donor and acceptor beads giving rise to an increase in fluorescence. Compounds, ATP, biotinylated poly(Glu, Tyr) and kinases are mixed in a volume of 20 uL for 1 hr at ambient temperature using Greiner 384-well white clear bottom medium binding plates. Following incubation a 10 uL solution containing […] AlphaScreen beads, 75 mM Hepes, pH 7.4, 300 mM NaCl, 120 mM EDTA, 0.3% BSA and 0.03% Tween-20 is added to each well. After 2-16 hr incubation of the beads, plates are read in a Perkin Elmer AlphaQuest reader. The IC50 values correlates well with those of radiometric assays.

The next assay has as its target c-Kit (Homo sapiens, UniProt P10721). As to the kind of experiment: c-Kit biochemical assay (AlphaScreen). Summed up: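 Kinase, compound, ATP and biotinylated poly(Glu,Tyr) 4:1 reacted 1 hr at ambient temperature; quenched with EDTA buffer (pH 7.4) containing streptavidin donor and anti-phosphotyrosine PY100 acceptor beads, incubated 16 hr, then AlphaScreen signal read to give IC50.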
Background: In Alpha technology, singlet oxygen from a donor bead excites a nearby acceptor bead.

The target in the next assay is EGFR (Homo sapiens, UniProt P00533). Description: EGFR kinase inhibition assay. Format: biochemical. On the procedure: as §1, §2, §3, §4

Structures are written as SMILES. pIC50: −log10 of the molar value.

EGFR, sequence (P00533 25-1210, species assumed): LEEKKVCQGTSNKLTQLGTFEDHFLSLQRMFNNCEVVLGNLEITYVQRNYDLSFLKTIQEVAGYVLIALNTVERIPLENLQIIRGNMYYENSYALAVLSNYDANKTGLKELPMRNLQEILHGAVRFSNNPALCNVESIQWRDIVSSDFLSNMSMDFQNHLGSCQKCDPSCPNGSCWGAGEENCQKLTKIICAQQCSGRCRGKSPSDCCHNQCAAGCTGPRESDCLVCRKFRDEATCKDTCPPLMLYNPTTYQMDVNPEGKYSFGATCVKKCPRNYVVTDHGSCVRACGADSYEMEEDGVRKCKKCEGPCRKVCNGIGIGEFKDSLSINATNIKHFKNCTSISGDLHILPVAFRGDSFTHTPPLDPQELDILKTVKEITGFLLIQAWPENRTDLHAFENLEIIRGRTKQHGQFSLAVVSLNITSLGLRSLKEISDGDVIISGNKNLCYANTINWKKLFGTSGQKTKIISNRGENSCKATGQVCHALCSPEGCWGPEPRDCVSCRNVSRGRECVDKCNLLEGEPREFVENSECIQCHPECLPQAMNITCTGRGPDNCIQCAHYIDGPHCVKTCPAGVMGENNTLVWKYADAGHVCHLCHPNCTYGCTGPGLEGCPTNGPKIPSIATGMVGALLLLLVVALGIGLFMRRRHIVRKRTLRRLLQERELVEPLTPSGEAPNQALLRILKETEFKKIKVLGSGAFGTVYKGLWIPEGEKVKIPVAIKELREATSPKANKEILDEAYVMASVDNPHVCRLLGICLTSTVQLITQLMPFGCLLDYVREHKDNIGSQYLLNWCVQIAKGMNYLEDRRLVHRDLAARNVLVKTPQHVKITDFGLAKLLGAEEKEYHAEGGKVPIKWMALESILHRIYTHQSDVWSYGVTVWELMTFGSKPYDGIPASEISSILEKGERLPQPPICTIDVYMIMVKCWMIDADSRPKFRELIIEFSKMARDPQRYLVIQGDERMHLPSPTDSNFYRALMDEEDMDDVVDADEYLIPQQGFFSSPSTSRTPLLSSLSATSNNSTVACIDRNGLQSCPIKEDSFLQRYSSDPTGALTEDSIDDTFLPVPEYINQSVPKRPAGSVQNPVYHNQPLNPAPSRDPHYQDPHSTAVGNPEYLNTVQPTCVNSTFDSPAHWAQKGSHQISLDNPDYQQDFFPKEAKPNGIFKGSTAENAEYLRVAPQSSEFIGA
c-Kit, sequence (P10721 26-976): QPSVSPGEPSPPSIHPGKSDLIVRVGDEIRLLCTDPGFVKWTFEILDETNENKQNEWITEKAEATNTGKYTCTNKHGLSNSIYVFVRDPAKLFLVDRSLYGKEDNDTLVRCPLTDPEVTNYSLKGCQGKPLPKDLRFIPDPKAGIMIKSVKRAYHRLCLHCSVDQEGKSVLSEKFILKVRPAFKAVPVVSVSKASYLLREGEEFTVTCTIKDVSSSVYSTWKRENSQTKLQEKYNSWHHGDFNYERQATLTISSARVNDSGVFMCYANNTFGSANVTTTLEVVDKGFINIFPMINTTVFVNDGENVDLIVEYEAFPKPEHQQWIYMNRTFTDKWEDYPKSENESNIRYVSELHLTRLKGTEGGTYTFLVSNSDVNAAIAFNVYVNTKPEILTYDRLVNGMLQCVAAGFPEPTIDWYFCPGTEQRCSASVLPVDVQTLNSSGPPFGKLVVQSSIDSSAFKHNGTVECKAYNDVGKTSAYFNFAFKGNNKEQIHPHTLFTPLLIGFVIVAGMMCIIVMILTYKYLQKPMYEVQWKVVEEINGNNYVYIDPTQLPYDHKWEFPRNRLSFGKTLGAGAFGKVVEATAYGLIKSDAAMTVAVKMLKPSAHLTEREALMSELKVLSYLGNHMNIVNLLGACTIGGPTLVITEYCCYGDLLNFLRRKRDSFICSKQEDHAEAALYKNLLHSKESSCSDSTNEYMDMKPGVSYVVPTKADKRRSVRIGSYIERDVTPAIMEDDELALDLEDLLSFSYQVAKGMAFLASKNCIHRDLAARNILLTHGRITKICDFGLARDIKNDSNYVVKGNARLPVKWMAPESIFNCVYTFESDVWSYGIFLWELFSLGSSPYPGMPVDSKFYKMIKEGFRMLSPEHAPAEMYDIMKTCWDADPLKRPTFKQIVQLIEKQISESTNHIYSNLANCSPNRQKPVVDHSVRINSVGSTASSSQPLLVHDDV

For orientation: pIC50 means the negative decadic logarithm of the IC50, by convention in mol/L. Higher therefore signals a small IC50. Regarding `CN1CCN(c2ccc3[nH]c(-c4cc(-c5ccc(NC(=O)Nc6cc(F)cc(F)c6)cc5)[nH]n4)nc3c2)CC1` [Entry 19, N-(3,5-difluorophenyl)-N′-(4-{3-[5-(4-methylpiperazin-1-yl)-1H-benzimidazol-2-yl]-1H-pyrazol-5-yl}phenyl)urea], the pIC50 against flt-3 was over 7.30; against EphB4 it was under 5.30; against c-Kit, over 7.30; against EGFR, under 5.30.
As to `COc1cccc(NC(=O)Nc2ccc(-c3cc(-c4nc5cc(N6CCN(C)CC6)ccc5[nH]4)n[nH]3)cc2)c1` [Entry 20, N-[3-(methyloxy)phenyl]-N′-(4-{3-[5-(4-methylpiperazin-1-yl)-1H-benzimidazol-2-yl]-1H-pyrazol-5-yl}phenyl)urea], the pIC50 against flt-3 was over 7.30; against EphB4, under 5.30; on c-Kit it was over 7.30; against EGFR, under 5.30.
As for `CCN1CCN(c2ccc(-c3cc(-c4ccc(NC(=O)Nc5ccc(Cl)c(C(F)(F)F)c5)cc4)[nH]n3)cc2)CC1` [Entry 21, N-[4-chloro-3-(trifluoromethyl)phenyl]-N′-(4-{3-[4-(4-ethylpiperazin-1-yl)phenyl]-1H-pyrazol-5-yl}phenyl)urea], the pIC50 against flt-3 was over 7.30; at EphB4, under 5.30; against c-Kit, over 7.30; at EGFR it was under 5.30.
Regarding `CN1CCN(c2ccc3[nH]c(-c4cc(-c5ccc(NC(=O)Nc6cccc(F)c6)cc5)[nH]n4)nc3c2)CC1` [Entry 22, N-(3-fluorophenyl)-N′-(4-{3-[5-(4-methylpiperazin-1-yl)-1H-benzimidazol-2-yl]-1H-pyrazol-5-yl}phenyl)urea], the pIC50 against flt-3 is over 7.30; against EphB4 it was under 5.30; against c-Kit, over 7.30; on EGFR, under 5.30.
As to `CN1CCN(c2ccc3[nH]c(-c4cc(-c5ccc(NC(=O)Nc6ccc(F)cc6)cc5)[nH]n4)nc3c2)CC1` [Entry 23, N-(4-fluorophenyl)-N′-(4-{3-[5-(4-methylpiperazin-1-yl)-1H-benzimidazol-2-yl]-1H-pyrazol-5-yl}phenyl)urea], the pIC50 against flt-3 is over 7.30; at EphB4, under 5.30; against c-Kit, over 7.30; at EGFR it was under 5.30.
`CN1CCN(c2ccc3[nH]c(-c4cc(-c5ccc(NC(=O)Nc6ccc(F)c(F)c6)cc5)[nH]n4)nc3c2)CC1` [Entry 25, N-(3,4-difluorophenyl)-N′-(4-{3-[5-(4-methylpiperazin-1-yl)-1H-benzimidazol-2-yl]-1H-pyrazol-5-yl}phenyl)urea]: the pIC50 against flt-3 is over 7.30; at EphB4, under 5.30; at c-Kit, over 7.30; against EGFR, under 5.30.
As to `CCN1CCN(c2ccc3nc(-c4cc(-c5ccc(NC(=O)Nc6ccc(F)cc6F)cc5)[nH]n4)[nH]c3c2)CC1` [Entry 29, N-(2,4-difluorophenyl)-N′-(4-{3-[6-(4-ethylpiperazin-1-yl)-1H-benzimidazol-2-yl]-1H-pyrazol-5-yl}phenyl)urea], the pIC50 at flt-3 was over 7.30; on EphB4 it was under 5.30; against c-Kit, over 7.30; on EGFR, under 5.30.
For the compound `O=C(Nc1ccc(-c2cc(-c3nc4ccccc4[nH]3)n[nH]2)cc1)Nc1ccc(Cl)c(C(F)(F)F)c1` [Entry 30, N-{4-[3-(1H-benzimidazol-2-yl)-1H-pyrazol-5-yl]phenyl}-N′-[4-chloro-3-(trifluoromethyl)phenyl]urea], the pIC50 was over 7.30 at flt-3, under 5.30 at EphB4, over 7.30 against c-Kit and under 5.30 against EGFR.
Turning to `O=C(Nc1ccc(-c2cc(-c3nc4ccccc4[nH]3)n[nH]2)cc1)Nc1cc(C(F)(F)F)ccc1F` [Entry 31, N-{4-[3-(1H-benzimidazol-2-yl)-1H-pyrazol-5-yl]phenyl}-N′-[2-fluoro-5-(trifluoromethyl)phenyl]urea], the pIC50 at flt-3 was over 7.30; at EphB4, under 5.30; at c-Kit, over 7.30; at EGFR, under 5.30.
Regarding `CN1CCN(c2ccc3[nH]c(-c4cc(-c5ccc(NC(=O)Nc6ccc(F)cc6F)cc5)[nH]n4)nc3c2)CC1` [Entry 32, N-(2,4-difluorophenyl)-N′-(4-{3-[5-(4-methylpiperazin-1-yl)-1H-benzimidazol-2-yl]-1H-pyrazol-5-yl}phenyl)urea], the pIC50 is over 7.30 against flt-3, under 5.30 at EphB4, over 7.30 against c-Kit and under 5.30 against EGFR.
Consider `CN1CCN(c2ccc3[nH]c(-c4cc(-c5ccc(NC(=O)Nc6cc(C(F)(F)F)cc(C(F)(F)F)c6)cc5)[nH]n4)nc3c2)CC1` [Entry 34, N-[3,5-bis(trifluoromethyl)phenyl]-N′-(4-{3-[5-(4-methylpiperazin-1-yl)-1H-benzimidazol-2-yl]-1H-pyrazol-5-yl}phenyl)urea], for which the pIC50 against flt-3 is over 7.30; on EphB4 it was 5.30 to 6.30; on c-Kit it was over 7.30; against EGFR, under 5.30.

The values are drawn from patent US8710038B2, “Pyrazole kinase modulators and methods of use” (Exelixis, Inc., priority 2004, dated 2014).
